Where two headings read alike, the source gives them in different places.
Experiments:
[1] = biological target: T1, Recombinant STAT3 protein (STAT3 (G127-I722)) (Homo sapiens, UniProt P40763); experiment: STAT3 Fluorescence Polarization (FP) Assay; type: binding; conditions: probe 5-FAM-GpYLPQTV-NH2 2 nM, 45-minute incubation
T1 construct: Recombinant STAT3 protein (STAT3 (G127-I722))
How it was run: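 In this competition FP format, STAT3 residues G127-I722 (25 nM) and 2 nM 5-FAM-GpYLPQTV-NH2 met test compounds for 45 min at room temperature. IC50 values result from fitting mP signal against log concentration by nonlinear regression.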

[2] = biological target: T2, Recombinant STAT6 protein (STAT6 (W123-T658)) (Homo sapiens, UniProt P42226); experiment: STAT6 Fluorescence Polarization (FP) Assay; type: binding; conditions: 45-minute incubation
T2 construct: Recombinant STAT6 protein (STAT6 (W123-T658))
T2 sequence (P42226 123-658): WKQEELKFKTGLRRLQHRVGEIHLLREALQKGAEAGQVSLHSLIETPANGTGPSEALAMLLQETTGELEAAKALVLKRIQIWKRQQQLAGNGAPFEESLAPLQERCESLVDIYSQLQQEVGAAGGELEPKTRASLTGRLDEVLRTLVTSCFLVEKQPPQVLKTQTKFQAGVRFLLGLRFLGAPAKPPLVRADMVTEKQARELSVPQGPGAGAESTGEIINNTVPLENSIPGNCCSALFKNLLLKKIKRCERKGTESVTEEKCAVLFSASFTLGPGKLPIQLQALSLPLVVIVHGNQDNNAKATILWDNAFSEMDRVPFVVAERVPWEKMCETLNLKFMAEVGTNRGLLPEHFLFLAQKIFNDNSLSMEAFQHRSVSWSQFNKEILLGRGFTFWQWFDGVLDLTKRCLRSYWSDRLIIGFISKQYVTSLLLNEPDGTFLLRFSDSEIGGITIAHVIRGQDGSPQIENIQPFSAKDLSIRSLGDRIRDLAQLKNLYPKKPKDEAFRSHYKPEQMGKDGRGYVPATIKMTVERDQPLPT
How it was run: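 Probe displacement format: serially diluted compounds incubated 45 min at room temperature with 2 nM fluorescent phosphopeptide and 250 nM STAT6 (W123-T658) in pH 7.4 HEPES buffer, 1% DMSO final. Polarization signal plotted against log concentration, IC50 fitted by nonlinear regression.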

[3] = STAT3 (G127-I722) 25 nM, read-out: STAT3 (FP assay IC50 class)
[4] = STAT6 (W123-T658) 250 nM, probe 5-FAM-Ap[…]-NH2 2 nM, read-out: STAT6 (FP assay IC50 class)
[5] = STAT3 25 nM, read-out: STAT3 (FP assay IC50)

T1 sequence (P40763 127-722): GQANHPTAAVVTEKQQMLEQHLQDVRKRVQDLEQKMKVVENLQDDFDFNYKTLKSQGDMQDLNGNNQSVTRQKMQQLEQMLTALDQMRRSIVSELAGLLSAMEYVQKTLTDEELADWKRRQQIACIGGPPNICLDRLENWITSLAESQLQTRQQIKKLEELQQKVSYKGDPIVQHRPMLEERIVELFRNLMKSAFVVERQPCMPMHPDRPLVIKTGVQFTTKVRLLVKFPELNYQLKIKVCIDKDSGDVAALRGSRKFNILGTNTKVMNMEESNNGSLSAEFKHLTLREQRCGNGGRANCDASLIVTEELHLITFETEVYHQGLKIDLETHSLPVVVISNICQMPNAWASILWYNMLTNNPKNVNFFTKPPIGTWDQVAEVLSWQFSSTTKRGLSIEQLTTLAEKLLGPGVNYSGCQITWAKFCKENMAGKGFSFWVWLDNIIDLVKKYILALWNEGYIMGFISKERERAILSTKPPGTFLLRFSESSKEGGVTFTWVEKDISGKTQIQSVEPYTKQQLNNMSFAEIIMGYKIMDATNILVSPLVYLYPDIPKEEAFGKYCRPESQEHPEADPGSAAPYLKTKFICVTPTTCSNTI

Row | IC50 [1, 3] [µM] | IC50 [2, 4] [µM] | IC50 ([2]; STAT6 250 nM, probe 5-FAM-Ap[…]-NH2 2 nM, read-out: STAT6 (FP assay IC50)) [µM] | Compound | IC50 [1, 5] [µM] | IC50 ([2]; STAT6 250 nM, probe 5-FAM-ApYKPFQDLI-NH2 2 nM, read-out: STAT6 (FP assay IC50)) [µM]
1 | 1 to 10 | ≤ 0.3 | – | N#C[C@H]1[C@H](c2ccccc2)CN(C(=O)[C@@H]2CC[C@@H]3CCCC[C@H](NC(=O)c4cc5cc(CP(=O)(O)O)ccc5s4)C(=O)N32)C12CC2 [Compound 929, ((2-(((3S,6S,10aS)-3-((6R,7S)-7-cyano-6-phenyl-4-azaspiro[2.4]heptane-4-carbonyl)-5-oxodecahydropyrrolo [1,2-a]azocin-6-yl)carbamoyl)benzo [b]thiophen-5-yl)methyl) phosphonic acid] | – | –
2 | 0.1 to 1 | 0.3 to 3 | – | Cc1cncnc1C1CN(C(=O)[C@@H]2CC[C@@H]3CCC[C@H](NC(=O)c4cc5cc(C(F)(F)P(=O)(O)O)ccc5s4)C(=O)N32)C1 [Compound 652, (difluoro(2-(((3S,6S,9aS)-3-(3-(5-methylpyrimidin-4-yl)azetidine-1-carbonyl)-5-oxooctahydro-1H-pyrrolo[1,2-a]azepin-6-yl)carbamoyl)benzo [b]thiophen-5-yl)methyl) phosphonic acid] | – | –
3 | – | – | – | N#C[C@@H]1CN(C(=O)[C@@H]2CC[C@@H]3CCCC[C@H](NC(=O)c4ccc5ccc(C(F)(F)P(=O)(O)O)cc5c4)C(=O)N32)C[C@H]1c1cc[nH]c(=O)c1 (single isomer, unassigned) [Compound 79, ((7-(((3S,6S,10aS)-3-((3S,4R or 3R,4S)-3-cyano-4-(2-oxo-1,2-dihydropyridin-4-yl)pyrrolidine-1-carbonyl)-5-oxodecahydropyrrolo [1,2-a]azocin-6-yl)carbamoyl)naphthalen-2-yl)difluoromethyl) phosphonic acid] | 0.1 to 1 | ≤ 0.3
4 | 0.1 to 1 | 3 to 30 | – | O=C(N[C@H]1CCCC[C@H]2CC[C@@H](C(=O)N3Cc4cccnc4C3)N2C1=O)c1cc2cc(C(F)(F)P(=O)(O)O)ccc2s1 [Compound 801, ((2-(((3S,6S,10aS)-3-(6,7-dihydro-5H-pyrrolo[3,4-b]pyridine-6-carbonyl)-5-oxodecahydropyrrolo [1,2-a]azocin-6-yl)carbamoyl)benzo [b]thiophen-5-yl)difluoromethyl) phosphonic acid] | – | –
5 | – | – | 0.3 to 3 | CC(=O)N1C[C@H](NC(=O)[C@@H]2CC[C@@H]3CCC[C@H](NC(=O)c4cc5cc(C(F)(F)P(=O)(O)O)ccc5s4)C(=O)N32)[C@@H](O)C1 [Compound 120, ((2-(((3S,6S,9aS)-3-(((3S,4S)-1-acetyl-4-hydroxypyrrolidin-3-yl)carbamoyl)-5-oxooctahydro-1H-pyrrolo[1,2-a]azepin-6-yl)carbamoyl)benzo[b]thiophen-5-yl)difluoromethyl) phosphonic acid] | 0.1 to 1 | –
6 | 1 to 10 | 3 to 30 | – | O=C(N[C@H]1CCC[C@H]2CC[C@@H](C(=O)N3CC(c4cnccc4N4CCCC4=O)C3)N2C1=O)c1cc2cc(CP(=O)(O)O)ccc2s1 [Compound 850, ((2-(((3S,6S,9aS)-5-oxo-3-(3-(4-(2-oxopyrrolidin-1-yl)pyridin-3-yl)azetidine-1-carbonyl)octahydro-1H-pyrrolo[1,2-a]azepin-6-yl)carbamoyl)benzo [b]thiophen-5-yl)methyl) phosphonic acid] | – | –
7 | 1 to 10 | 3 to 30 | – | COc1cc(F)c(C2CN(C(=O)[C@@H]3CC[C@@H]4CCC[C@H](NC(=O)c5cc6cc(CP(=O)(O)O)ccc6s5)C(=O)N43)C2)cn1 [Compound 556, ((2-(((3S,6S,9aS)-3-(3-(4-fluoro-6-methoxypyridin-3-yl)azetidine-1-carbonyl)-5-oxooctahydro-1H-pyrrolo[1,2-a]azepin-6-yl)carbamoyl)benzo[b]thiophen-5-yl)methyl)phosphonic acid] | – | –
8 | 1 to 10 | 0.3 to 3 | – | Cn1ccc(N2C(=O)N(C(=O)[C@@H]3CC[C@@H]4CCCC[C@H](NC(=O)c5cc6cc(C(F)P(=O)(O)O)ccc6s5)C(=O)N43)C3(CC3)C2=O)cc1=O (stereo partly drawn) [Compound 569, (fluoro(2-(((3S,6S,10aS)-3-(6-(1-methyl-2-oxo-1,2-dihydropyridin-4-y1)-5,7-dioxo-4,6-diazaspiro[2.4]heptane-4-carbonyl)-5-oxodecahydropyrrolo[1,2-a]azocin-6-yl)carbamoyl)benzo[b]thiophen-5-yl)methyl)phosphonic acid] | – | –

Source: US20250215029A1 (Recludix Pharma, Inc., priority 2022, published 2025)
